Test results: patent publication US20150071974A1, “COMPOUNDS WHICH INHIBIT NEURONAL EXOCYTOSIS” (LUBRIZOL ADVANCED MATERIALS, INC., priority 2012, published 2015)

Test system: human neuroblastoma cell line
Assay: Release of noradrenaline induced by TPA/Ionomycin in a neuroblastoma cell line, quantified by ELISA
Assay type: cell-based
Conditions: TPA/ION control = 100.00
Protocol: Quantification of the Release of Noradrenaline Induced by TPA/Ionomycin in a Neuroblastoma Cell Line by ELISA
The induction of the release of noradrenaline with TPA (12-O-tetradecanoylphorbol-13-acetate)/lonomycin enables direct measurement of neuronal exocytosis. For the study of the inhibitory effect of the compounds of the invention on the release of noradrenaline, cells of a human neuroblastoma cell line were pre-incubated (1×10^6 cells/well) for 60 minutes with the compound of the invention (1 μM, 10 μM, 100 μM, 500 μM or 1 mM compounds), and afterward the release of noradrenaline was induced. The release of the noradrenaline neurotransmitter was induced by an 8 minute pre-treatment with a solution of 12-O-tetradecanoylphorbol-13-acetate (TPA) 100 nM, which mobilized the intracellular vesicles which contained the neurotransmitter; followed by a 5 minute incubation with TPA/Ionomycin (100 nM/10 μM), which induced the release of the neurotransmitter contained in these vesicles. […] For this, absorbance at 405 nm was measured in Thermo Scientific Multiskan Ascent equipment.
The blocking of the SNARE complex by the compounds of the invention lead to an inhibition of neuronal exocytosis and therefore, a decrease in the levels of released noradrenaline (Table 6).

Substance	% RELEASED NORADRENALINE Average (dose 10 μM)	% RELEASED NORADRENALINE Average (dose 100 μM)	% RELEASED NORADRENALINE Average (dose 1000 μM)
Ac-HQEHRKMD-NH2 [Ac-SEQ ID NO: 5-NH2]	85.68%	81.50%	51.45%
Ac-QNLEHIMDQ-NH2 [Ac-SEQ ID NO: 62-NH2]	77.76%	82.72%	63.99%
Ac-QQLENIMDN-NH2 [Ac-SEQ ID NO: 51-NH2]	81.13%	101.40%	35.37%
